Data on 36 molecules can be found in patent US7585859B2, “PDE4B inhibitors and uses therefor” (Plexxikon, Inc., priority 2004, dated 2009).

For one assay, the target named is T1, PDE4D (Homo sapiens, UniProt Q08499).
T1 construct: PDE4D: The catalytic domain of human PDE4B from S3 16-V692; His6 (N); thrombin cleavage site (N); made in house; host or cells: E. coli
Kind of assay: PDE4 IC50 determination by Scintillation Proximity Assay, PDE4D. Format: biochemical. A digest of the protocol:
(§1)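 Enzyme was added to compound and [^3H]cAMP, then incubated 30 min at 30° (PDE4B 80 ng/ml; PDE4D 4 ng/ml). Product [^3H]AMP bound to SPA beads and was counted. IC50 was fitted by non-linear regression against DMSO and roflumilast controls.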

In assay [1] the target is T2, PDE4B: The catalytic domain of human PDE4B from S152-S528 (Homo sapiens, UniProt Q07343).
T2 construct: His6 (N); thrombin cleavage site (N); made in house; host or cells: E. coli
T2 sequence (Q07343 with tags, fused parts or gaps): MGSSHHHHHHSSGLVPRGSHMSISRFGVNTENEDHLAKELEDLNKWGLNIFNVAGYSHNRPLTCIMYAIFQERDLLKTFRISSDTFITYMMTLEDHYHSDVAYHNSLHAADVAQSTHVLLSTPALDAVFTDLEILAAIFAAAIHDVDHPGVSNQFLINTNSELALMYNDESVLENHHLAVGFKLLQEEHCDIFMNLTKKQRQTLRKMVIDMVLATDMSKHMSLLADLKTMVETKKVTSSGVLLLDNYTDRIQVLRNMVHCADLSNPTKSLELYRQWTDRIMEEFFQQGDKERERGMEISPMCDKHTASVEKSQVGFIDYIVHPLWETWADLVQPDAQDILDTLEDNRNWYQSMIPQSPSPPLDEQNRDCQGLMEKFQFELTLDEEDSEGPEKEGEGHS
Nature of the assay: PDE4 IC50 determination by Scintillation Proximity Assay, PDE4B. Format: biochemical. Summed up: as §1

Setting [2] is: second part of Table 2B (2-23 to 2-103), column 5, column is PDE4D in first part, read-out: IC 50 vs. indicated assay h TNFα.
Setting [3] is: second part of Table 2B (2-23 to 2-103), column 3, column is PDE4B in first part, read-out: IC 50 vs. indicated assay h TNFα.

pIC50: −log10 of the molar value. Where two headings read alike, the source gives them in different places. A value given as a limit tells only on which side of the number the result lay.

T1 sequence (Q08499 380-756): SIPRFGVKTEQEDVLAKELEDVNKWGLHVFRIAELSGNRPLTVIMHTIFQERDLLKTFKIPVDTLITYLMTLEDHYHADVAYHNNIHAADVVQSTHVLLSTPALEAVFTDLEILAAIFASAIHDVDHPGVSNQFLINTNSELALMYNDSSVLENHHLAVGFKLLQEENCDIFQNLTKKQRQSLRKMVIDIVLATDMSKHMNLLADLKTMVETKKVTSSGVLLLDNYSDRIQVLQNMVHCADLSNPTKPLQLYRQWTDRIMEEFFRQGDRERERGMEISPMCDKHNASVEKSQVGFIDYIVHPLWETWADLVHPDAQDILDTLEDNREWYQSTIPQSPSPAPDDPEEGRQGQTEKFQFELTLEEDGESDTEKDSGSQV

In the case of `COc1ccc(Nc2nc(N)c(C(=O)c3cccc(C(F)(F)F)c3)s2)cc1` [Compound 2-55, [4-Amino-2-(4-methoxy-phenylamino)-thiazol-5-yl]-(3-trifluoromethyl-phenyl)-methanone], the pIC50 (on PDE4D (setting [2]); in assay [1] (setting [3])) was above 5.00 each time.
Turning to `N#Cc1cccc(Nc2nc(N)c(C(=O)c3cccc(C(F)(F)F)c3)s2)c1` [Compound 2-56, 3-[4-Amino-5-(3-trifluoromethyl-benzoyl)-thiazol-2-ylamino]-benzonitrile], the pIC50 (at PDE4D (setting [2]); in assay [1] (setting [3])) was above 5.00 each time.
As for `Nc1nc(Nc2ccc(Oc3ccccc3)cc2)sc1C(=O)c1cccc(C(F)(F)F)c1` [Compound 2-57, [4-Amino-2-(4-phenoxy-phenylamino)-thiazol-5-yl]-(3-trifluoromethyl-phenyl)-methanone], the pIC50 at PDE4D (setting [2]) is below 5.00; in assay [1] (setting [3]), above 5.00.
Take `Nc1nc(Nc2ccccc2F)sc1C(=O)c1ccc(OC(F)F)cc1` [Compound 2-58, [4-Amino-2-(2-fluoro-phenylamino)-thiazol-5-yl]-(4-difluoromethoxy-phenyl)-methanone]: the pIC50 (at PDE4D (setting [2]); in assay [1] (setting [3])) was above 5.00 in each case.
For the molecule `COc1ccc(Nc2nc(N)c(C(=O)c3ccc(OC(F)F)cc3)s2)cc1` [Compound 2-59, [4-Amino-2-(4-methoxy-phenylamino)-thiazol-5-yl]-(4-difluoromethoxy-phenyl)-methanone], the pIC50 (on PDE4D (setting [2]); in assay [1] (setting [3])) was above 5.00 throughout.
As to `N#Cc1cccc(Nc2nc(N)c(C(=O)c3ccc(OC(F)F)cc3)s2)c1` [Compound 2-60, 3-[4-Amino-5-(4-difluoromethoxy-benzoyl)-thiazol-2-ylamino]-benzonitrile], the pIC50 is below 5.00 at PDE4D (setting [2]) and above 5.00 in assay [1] (setting [3]).
As for `COc1cccc(C(=O)c2sc(Nc3ccccc3F)nc2N)c1` [Compound 2-62, [4-Amino-2-(2-fluoro-phenylamino)-thiazol-5-yl]-(3-methoxy-phenyl)-methanone], the pIC50 (on PDE4D (setting [2]); in assay [1] (setting [3])) was above 5.00 in each case.
As for `COc1ccc(Nc2nc(N)c(C(=O)c3cccc(OC)c3)s2)cc1` [Compound 2-63, [4-Amino-2-(4-methoxy-phenylamino)-thiazol-5-yl]-(3-methoxy-phenyl)-methanone], the pIC50 (at PDE4D (setting [2]); in assay [1] (setting [3])) was above 5.00 each time.
With `COc1cccc(C(=O)c2sc(Nc3ccc(Oc4ccccc4)cc3)nc2N)c1` [Compound 2-65, [4-Amino-2-(4-phenoxy-phenylamino)-thiazol-5-yl]-(3-methoxy-phenyl)-methanone], the pIC50 (at PDE4D (setting [2]); in assay [1] (setting [3])) was above 5.00 throughout.
`Nc1nc(Nc2ccc(Oc3ccccc3)cc2)sc1C(=O)c1ccccc1Cl` [Compound 2-66, [4-Amino-2-(4-phenoxy-phenylamino)-thiazol-5-yl]-(2-chloro-phenyl)-methanone]: the pIC50 on PDE4D (setting [2]) was below 5.00; in assay [1] (setting [3]) it was above 5.00.
Take `Nc1nc(NCc2ccccc2)sc1C(=O)c1ccccc1` [Compound 2-68, (4-Amino-2-benzylamino-thiazol-5-yl)-phenyl-methanone]: the pIC50 (on PDE4D (setting [2]); in assay [1] (setting [3])) was above 5.00 in each case.
On to `COc1cccc(C(=O)c2sc(NC(C)C)nc2N)c1` [Compound 2-69, (4-Amino-2-isopropylamino-thiazol-5-yl)-(3-methoxy-phenyl)-methanone], for which the pIC50 at PDE4D (setting [2]) is below 5.00; in assay [1] (setting [3]), above 5.00.
The like results for `Nc1nc(Nc2cccc3ccccc23)sc1C(=O)c1ccccc1` [Compound 2-70, [4-Amino-2-(naphthalen-1-ylamino)-thiazol-5-yl]-phenyl-methanone] were, in that order, above 5.00 and above 5.00.
In the same order, the values of `Nc1nc(Nc2cccnc2)sc1C(=O)c1ccccc1` [Compound 2-71, [4-Amino-2-(pyridin-3-ylamino)-thiazol-5-yl]-phenyl-methanone] are above 5.00 and above 5.00.
For the molecule `COc1ccc(C(=O)c2sc(Nc3cccnc3)nc2N)cc1` [Compound 2-72, [4-Amino-2-(pyridin-3-ylamino)-thiazol-5-yl]-(4-methoxy-phenyl)-methanone], the pIC50 (on PDE4D (setting [2]); in assay [1] (setting [3])) was above 5.00 each time.
Turning to `Nc1nc(Nc2ccccn2)sc1C(=O)c1ccccc1` [Compound 2-73, [4-Amino-2-(pyridin-2-ylamino)-thiazol-5-yl]-phenyl-methanone], the pIC50 at PDE4D (setting [2]) is below 5.00; in assay [1] (setting [3]), above 5.00.
Consider `Nc1nc(Nc2ccc(Oc3ccccc3)nc2)sc1C(=O)c1ccccc1` [Compound 2-74, [4-Amino-2-(6-phenoxy-pyridin-3-ylamino)-thiazol-5-yl]-phenyl-methanone], for which the pIC50 is above 5.00 on PDE4D (setting [2]) and below 5.00 in assay [1] (setting [3]).
As for `Nc1nc(NC2CCCC2)sc1C(=O)c1ccccc1Cl` [Compound 2-75, (4-Amino-2-cyclopentylamino-thiazol-5-yl)-(2-chloro-phenyl)-methanone], the pIC50 (on PDE4D (setting [2]); in assay [1] (setting [3])) was below 5.00 each time.
`Nc1nc(NC2CC2)sc1C(=O)c1ccc(Oc2ccccc2)cc1` [Compound 2-77, (4-Amino-2-cyclopropylamino-thiazol-5-yl)-(4-phenoxy-phenyl)-methanone]: the pIC50 (at PDE4D (setting [2]); in assay [1] (setting [3])) was above 5.00 each time.
With `COc1ccc(C(=O)c2sc(NC3CCCC3)nc2N)cc1` [Compound 2-78, (4-Amino-2-cyclopentylamino-thiazol-5-yl)-(4-methoxy-phenyl)-methanone], the pIC50 (against PDE4D; in assay [1]) was above 5.00 throughout.
For `COc1ccc(C(=O)c2sc(NC3CC3)nc2N)cc1` [Compound 2-79, (4-Amino-2-cyclopropylamino-thiazol-5-yl)-(4-methoxy-phenyl)-methanone], the pIC50 (at PDE4D (setting [2]); in assay [1] (setting [3])) was above 5.00 in each case.
For the molecule `Nc1nc(NC2CC2)sc1C(=O)c1cccc(Cl)c1` [Compound 2-81, (4-Amino-2-cyclopropylamino-thiazol-5-yl)-(3-chloro-phenyl)-methanone], the pIC50 (on PDE4D (setting [2]); in assay [1] (setting [3])) was above 5.00 each time.
For `Nc1nc(NC2CCCC2)sc1C(=O)c1cccc(C(F)(F)F)c1` [Compound 2-82, (4-Amino-2-cyclopentylamino-thiazol-5-yl)-(3-trifluoromethyl-phenyl)-methanone], the pIC50 (at PDE4D (setting [2]); in assay [1] (setting [3])) was above 5.00 throughout.
On to `Nc1nc(NC2CCCC2)sc1C(=O)c1ccc(OC(F)F)cc1` [Compound 2-84, (4-Amino-2-cyclopentylamino-thiazol-5-yl)-(4-difluoromethoxy-phenyl)-methanone], for which the pIC50 (at PDE4D (setting [2]); in assay [1] (setting [3])) was above 5.00 throughout.
For `Nc1nc(NC2CC2)sc1C(=O)c1ccc(OC(F)F)cc1` [Compound 2-85, (4-Amino-2-thiazol-5-yl)-(4-difluoromethoxy-phenyl)-methanone], the values for the pIC50 (at PDE4D (setting [2]); in assay [1] (setting [3])) were below 5.00 and above 5.00, respectively.
The like results for `COc1cccc(C(=O)c2sc(NC3CCCC3)nc2N)c1` [Compound 2-86, (4-Amino-2-cyclopentylamino-thiazol-5-yl)-(3-methoxy-phenyl)-methanone] were, in that order, above 5.00 and above 5.00.
For `COc1cccc(C(=O)c2sc(NC3CC3)nc2N)c1` [Compound 2-87, (4-Amino-2-cyclopropylamino-thiazol-5-yl)-(3-methoxy-phenyl)-methanone], the pIC50 (at PDE4D (setting [2]); in assay [1] (setting [3])) was above 5.00 each time.
Consider `Nc1nc(NC2CC2)sc1C(=O)c1cccc(C(F)(F)F)c1` [Compound 2-88, (4-Amino-2-cyclopropylamino-thiazol-5-yl)-(3-trifluoromethyl-phenyl)-methanone], for which the pIC50 (on PDE4D (setting [2]); in assay [1] (setting [3])) was above 5.00 in each case.
`Nc1nc(Nc2ccccc2)sc1C(=O)C1CCCC1` [Compound 2-89, (4-Amino-2-phenylamino-thiazol-5-yl)-cyclopentyl-methanone]: the pIC50 (at PDE4D (setting [2]); in assay [1] (setting [3])) was above 5.00 in each case.
In the case of `Nc1nc(Nc2ccccc2)sc1C(=O)C1CCCCC1` [Compound 2-90, (4-Amino-2-phenylamino-thiazol-5-yl)-cyclohexyl-methanone], the pIC50 (on PDE4D (setting [2]); in assay [1] (setting [3])) was above 5.00 throughout.
For `Nc1nc(Nc2ccc(Cl)cc2)sc1C(=O)C1CCCCC1` [Compound 2-91, [4-Amino-2-(4-chloro-phenylamino)-thiazol-5-yl]-cyclohexyl-methanone], the pIC50 is below 5.00 at PDE4D (setting [2]) and above 5.00 in assay [1] (setting [3]).
For `Nc1nc(Nc2c(Cl)cccc2Cl)sc1C(=O)CC1CCCC1` [Compound 2-94, 1-[4-Amino-2-(2,6-dichloro-phenylamino)-thiazol-5-yl]-2-cyclopentyl-ethanone], the pIC50 (on PDE4D (setting [2]); in assay [1] (setting [3])) was below 5.00 throughout.
With `Nc1nc(Nc2ccccc2)sc1C(=O)C1CC1` [Compound 2-95, (4-Amino-2-phenylamino-thiazol-5-yl)-cyclopropyl-methanone], the pIC50 at PDE4D (setting [2]) is below 5.00; in assay [1] (setting [3]), above 5.00.
The like results for `Nc1nc(Nc2c(Cl)cccc2Cl)sc1C(=O)C1CC1` [Compound 2-96, [4-Amino-2-(2,6-dichloro-phenylamino)-thiazol-5-yl]-cyclopropyl-methanone] were, in that order, above 5.00 and above 5.00.
Turning to `Nc1nc(Nc2ccc(Oc3ccccc3)cc2)sc1C(=O)C1CC1` [Compound 2-97, [4-Amino-2-(4-phenoxy-phenylamino)-thiazol-5-yl]-cyclopropyl-methanone], the pIC50 (at PDE4D (setting [2]); in assay [1] (setting [3])) was above 5.00 each time.
Turning to `Nc1nc(Nc2ccccc2F)sc1C(=O)C1CCCC1` [Compound 2-98, [4-Amino-2-(2-fluoro-phenylamino)-thiazol-5-yl]-cyclopentyl-methanone], the pIC50 (on PDE4D (setting [2]); in assay [1] (setting [3])) was above 5.00 in each case.
